# Laboratory results as given in US20250152547A1, “COMPOSITIONS FOR DELIVERY OF LADOSTIGIL” (priority 2019, published 2025).
# How the values were obtained:
# [1] = Concentration of ladostigil in brain (cortex) of rats after oral or rectal administration (LC-MS/MS); type: in vivo; settings: male, Wistar, rat, read-out: Concentration of ladostigil in brain (cortex), mean ± STD (coefficient of variation)
# [2] = Concentration of ladostigil in plasma of human subjects after a single oral dose (LC/MS/MS); type: in vivo, humans; settings: read-out: Concentration of ladostigil in plasma, mean ± STD (coefficient of variation)
# [3] = Concentration of ladostigil in plasma of rats after oral or rectal administration (LC-MS/MS); type: in vivo; settings: rat
# Protocol: Methods: Male Wister rats weighing 250-270g were used for these experiments. […] In other rats, the same dose of ladostigil was administered via a cannula gently inserted into the rectum and pushed forward to reach the colon. […] The brain was removed, and the cortex carefully dissected and stored at-80° C. until further analysis. Blood was collected in heparinized Eppendorf tubes, centrifuged at 4° C., 20,800 g for 10 min and the plasma was stored at −80° C. until further analysis.
# (§1) Samples were prepared for LC-MS analysis after precipitating the proteins in plasma and cortical extracts with methanol as described in Moradov et al. (2015). Briefly, rivastigmine 750 ng/ml (internal standard) was added to 50 μl of plasma or supernatant after brain homogenization and ladostigil was extracted with HPLC grade MeOH. 75 μl of double distilled water (DDW) was added to 150 μl of the supernatant to give a final ratio of DDW:MeOH 1:1. The samples were filtered through […] GHP membranes and injected into the LC-MS machine. LC-MS/MS analysis was also performed as described in Moradov et al. (2015).
# (§2) Ladostigil and rivastigmine were detected by an AB Sciex (Framingham, MA, USA) Triple Quad™ 5500 mass spectrometer in positive ion mode by electrospray ionization (ESI) and a multiple reaction monitoring (MRM) mode of acquisition. Data acquisition and analysis were performed on a Dell Optiplex 960 computer with Analyst 1.6.2 software distributed by AB Sciex. Quantitative calibration (0-100 ng/ml) was performed before every batch of samples. The calibration curve (y=a+bx) was obtained by linear least-squares regression of the measured peak area (y) versus the concentration added to the biological matrix (x). The limit of quantification (LOQ) of ladostigil in plasma and cortex was 50 pg/ml.
# [4] = Concentration of ladostigil in brain (cortex) of rats after oral or rectal administration (LC-MS/MS); type: in vivo; settings: male, Wistar, rat, read-out: Concentration of ladostigil in brain (cortex), mean ± STD (coefficient of variation); remark: listed apart in the source
# Protocol: Methods: Male Wister rats weighing 250-270g were used for these experiments. Ladostigil was administered by gavage at a dose of 5 mg/kg (volume 0.25-0.27ml). In other rats, the same dose of ladostigil was administered via a cannula gently inserted into the rectum and pushed forward to reach the colon. The rats were anesthetized with isofluorane and sacrificed by decapitation at 0, 15, 30, 60 or 120 min after ladostigil administration. The brain was removed, and the cortex carefully dissected and stored at-80° C. until further analysis. Blood was collected in heparinized Eppendorf tubes, centrifuged at 4° C., 20,800 g for 10 min and the plasma was stored at −80° C. until further analysis.
# as §1, §2
# [5] = Blood levels of ladostigil after oral administration, detection time and inter subject variability; type: in vivo, humans and rodent species
# Protocol: Ladostigil is well absorbed from the gastro intestinal tract and can be detected in the blood within 15 minutes after oral administration in humans and rodent species. However, the inter subject variability in these blood levels at peak times after administration is very high with coefficients of variation of more than 100% irrespective of the dose administered. (Table 1). This is undesirable and could exacerbate any variability in the response to treatment by ladostigil of potential patients. The wide inter individual variation in blood levels may explain why the therapeutic effect of the drug in the clinical trial was not more pronounced.
# [6] = oral administration (gavage) 5 mg/kg
# [7] = other: rectal administration, rectal administration 5 mg/kg
# [8] = normal healthy subjects aged 18-40, single oral dose 50 mg
# [9] = normal healthy subjects aged 18-40, single oral dose 100 mg
compound,measurement,setting,value
"C#CCN[C@@H]1CCc2ccc(OC(=O)N(C)CC)cc21 [ladostigil, 6-(N-ethyl, N-methyl, carbamyloxy)-N propargyl-1(R)-aminoindan, tartarate]",concentration at 180 min,[1]; [6],2.9 ng/g
same,concentration at 180 min,[1]; [7],2.8 ng/g
same,concentration at 15 min,[2]; [8],3.74 ng/mL
same,concentration at 30 min,[2]; [8],18 ng/mL
same,concentration at 60 min,[2]; [8],8.29 ng/mL
same,concentration at 120 min,[2]; [8],2.88 ng/mL
same,concentration at 15 min,[2]; [9],9.3 ng/mL
same,concentration at 30 min,[2]; [9],34.8 ng/mL
same,concentration at 60 min,[2]; [9],97.6 ng/mL
same,concentration at 120 min,[2]; [9],44.4 ng/mL
same,concentration at 180 min,"[2]; normal healthy subjects aged 18-40, single oral dose 100 mg, 180 min",15.3 ng/mL
same,concentration at 15 min,"[3]; male, Wistar, other: rectal administration, rats, rectal administration 5 mg/kg, 15 min, read-out: Concentration of ladostigil in plasma, mean ± STD (coefficient of variation)",60.6 ng/mL
same,concentration at 30 min,"[3]; male, Wistar, other: rectal administration, rats, rectal administration 5 mg/kg, 30 min, read-out: Concentration of ladostigil in plasma, mean ± STD (coefficient of variation)",47.2 ng/mL
same,concentration at 60 min,"[3]; male, Wistar, other: rectal administration, rats, rectal administration 5 mg/kg, 60 min, * significantly higher than after oral treatment p < 0.05, read-out: Concentration of ladostigil in plasma, mean ± STD (coefficient of variation)",33.7 ng/mL
same,concentration at 120 min,"[3]; male, Wistar, other: rectal administration, rats, rectal administration 5 mg/kg, 120 min, * significantly higher than after oral treatment p < 0.05, read-out: Concentration of ladostigil in plasma, mean ± STD (coefficient of variation)",14.1 ng/mL
same,concentration at 180 min,"[3]; male, Wistar, other: rectal administration, rats, rectal administration 5 mg/kg, 180 min, * significantly higher than after oral treatment p < 0.05, read-out: Concentration of ladostigil in plasma, mean ± STD (coefficient of variation)",13.9 ng/mL
same,concentration at 15 min,"[3]; male, Wistar rats, single oral dose 5 mg/kg, 15 min (Table 1), read-out: Concentration of ladostigil in plasma, mean ± STD (coefficient of variation)",53.7 ng/mL
same,concentration at 30 min,"[3]; male, Wistar rats, single oral dose 5 mg/kg, 30 min (Table 1), read-out: Concentration of ladostigil in plasma, mean ± STD (coefficient of variation)",36.4 ng/mL
same,concentration at 60 min,"[3]; male, Wistar rats, single oral dose 5 mg/kg, 60 min (Table 1), read-out: Concentration of ladostigil in plasma, mean ± STD (coefficient of variation)",8.3 ng/mL
same,concentration at 120 min,"[3]; male, Wistar rats, single oral dose 5 mg/kg, 120 min (Table 1), read-out: Concentration of ladostigil in plasma, mean ± STD (coefficient of variation)",4.9 ng/mL
same,concentration at 180 min,"[3]; male, Wistar rats, single oral dose 5 mg/kg, 180 min (Table 1), read-out: Concentration of ladostigil in plasma, mean ± STD (coefficient of variation)",2.4 ng/mL
same,concentration at 15 min,"[3]; Wistar rats, single oral dose 1 mg/kg, 15 min, read-out: Concentration of ladostigil in plasma, mean ± STD (coefficient of variation)",18.7 ng/mL
same,concentration at 30 min,"[3]; Wistar rats, single oral dose 1 mg/kg, 30 min, read-out: Concentration of ladostigil in plasma, mean ± STD (coefficient of variation)",12.3 ng/mL
same,concentration at 60 min,"[3]; Wistar rats, single oral dose 1 mg/kg, 60 min, read-out: Concentration of ladostigil in plasma, mean ± STD (coefficient of variation)",6.7 ng/mL
same,concentration at 120 min,"[3]; Wistar rats, single oral dose 1 mg/kg, 120 min, read-out: Concentration of ladostigil in plasma, mean ± STD (coefficient of variation)",1.6 ng/mL
same,concentration at 15 min,[4]; [6],17.9 ng/g
same,concentration at 30 min,[4]; [6],9.3 ng/g
same,concentration at 60 min,[4]; [6],6.7 ng/g
same,concentration at 120 min,[4]; [6],4.9 ng/g
same,concentration at 15 min,[4]; [7],14.3 ng/g
same,concentration at 30 min,[4]; [7],11.9 ng/g
same,concentration at 60 min,[4]; [7],9.3 ng/g
same,concentration at 120 min,[4]; [7],7.4 ng/g
same,Coefficient of variation of blood levels (inter subject variability),"[5]; at peak times after oral administration, irrespective of the dose",more than 100%
same,Time after which ladostigil can be detected in the blood,"[5]; oral administration, humans and rodent species",≤ 15 min
